# Test results reported in PubChem BioAssay (NCI).
#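 Results reflect a 48-hour exposure of cells in 96-well plates to compound at five concentrations. Here, GI50 denotes the concentration required for 50% inhibition of growth. At the TGI there is no net growth.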
# What was measured:
# Experiment in all cases: NCI tumour cell line growth inhibition, 48 h
# BT-549 breast = system: BT-549 breast
# T-47D breast = system: T-47D breast
# OVCAR-4 ovarian = system: OVCAR-4 ovarian
# OVCAR-8 ovarian = system: OVCAR-8 ovarian
# HS 578T breast = system: HS 578T breast
# LOX IMVI melanoma = system: LOX IMVI melanoma
# HCT-116 colon = system: HCT-116 colon
# M14 melanoma = system: M14 melanoma
# SK-MEL-28 melanoma = system: SK-MEL-28 melanoma
# OVCAR-3 ovarian = system: OVCAR-3 ovarian
# UACC-257 melanoma = system: UACC-257 melanoma
# EKVX NSCLC = system: EKVX NSCLC
# RPMI-8226 leukemia = system: RPMI-8226 leukemia
# SK-MEL-2 melanoma = system: SK-MEL-2 melanoma
# SNB-75 CNS = system: SNB-75 CNS
# UO-31 renal = system: UO-31 renal
# MOLT-4 leukemia = system: MOLT-4 leukemia
# RXF 393 renal = system: RXF 393 renal
# SK-OV-3 ovarian = system: SK-OV-3 ovarian
# HOP-92 NSCLC = system: HOP-92 NSCLC
# OVCAR-5 ovarian = system: OVCAR-5 ovarian
# NCI-H522 lung = system: NCI-H522 lung
# MDA-MB-231 breast = system: MDA-MB-231 breast
# KM12 colon = system: KM12 colon
# SW-620 colon = system: SW-620 colon
# NCI/ADR-RES ovarian = system: NCI/ADR-RES ovarian
# SNB-19 CNS = system: SNB-19 CNS
# HCT-15 colon = system: HCT-15 colon
# MDA-MB-435 = system: MDA-MB-435
# HCC-2998 colon = system: HCC-2998 colon
# CAKI-1 renal = system: CAKI-1 renal
# SF-295 CNS = system: SF-295 CNS
# CCRF-CEM leukemia = system: CCRF-CEM leukemia
# TK-10 renal = system: TK-10 renal
# DU-145 prostate = system: DU-145 prostate
# NCI-H460 lung = system: NCI-H460 lung
# PC-3 prostate = system: PC-3 prostate
# HOP-62 NSCLC = system: HOP-62 NSCLC
# MCF7 breast = system: MCF7 breast
# NCI-H226 lung = system: NCI-H226 lung
# U251 CNS = system: U251 CNS
# SN12C renal = system: SN12C renal
# A549 NSCLC = system: A549 NSCLC
# HT29 colon = system: HT29 colon
# HL-60(TB) leukemia = system: HL-60(TB) leukemia
# IGROV1 ovarian = system: IGROV1 ovarian
# 786-0 renal = system: 786-0 renal
# SK-MEL-5 melanoma = system: SK-MEL-5 melanoma
# SF-539 CNS = system: SF-539 CNS
# SR leukemia = system: SR leukemia
# COLO 205 colon = system: COLO 205 colon
# SF-268 CNS = system: SF-268 CNS
# ACHN renal = system: ACHN renal
# MALME-3M melanoma = system: MALME-3M melanoma
# A498 renal = system: A498 renal
# K-562 leukemia = system: K-562 leukemia
compound,measurement,setting,value
O=C1C2=C(C(=O)c3c(O)cccc31)C(c1ccco1)c1sc(=O)[nH]c1S2 (stereo unspecified),GI50,BT-549 breast,1.64 µM
same,TGI,BT-549 breast,3.2 µM
same,GI50,T-47D breast,2.87 µM
same,TGI,T-47D breast,13 µM
same,GI50,OVCAR-4 ovarian,1.79 µM
same,TGI,OVCAR-4 ovarian,3.95 µM
same,GI50,OVCAR-8 ovarian,2.46 µM
same,TGI,OVCAR-8 ovarian,8.97 µM
same,GI50,HS 578T breast,2.2 µM
same,TGI,HS 578T breast,6.56 µM
same,GI50,LOX IMVI melanoma,2.21 µM
same,TGI,LOX IMVI melanoma,7.55 µM
same,GI50,HCT-116 colon,2.36 µM
same,GI50,M14 melanoma,1.06 µM
same,TGI,M14 melanoma,2.37 µM
same,GI50,SK-MEL-28 melanoma,1.87 µM
same,TGI,SK-MEL-28 melanoma,3.72 µM
same,GI50,OVCAR-3 ovarian,2.86 µM
same,TGI,OVCAR-3 ovarian,14 µM
same,GI50,UACC-257 melanoma,1.57 µM
same,TGI,UACC-257 melanoma,3.26 µM
same,GI50,EKVX NSCLC,6.75 µM
same,TGI,EKVX NSCLC,19.4 µM
same,GI50,RPMI-8226 leukemia,2.62 µM
same,TGI,RPMI-8226 leukemia,9.83 µM
same,GI50,SK-MEL-2 melanoma,3.51 µM
same,TGI,SK-MEL-2 melanoma,16.4 µM
same,GI50,SNB-75 CNS,3.17 µM
same,TGI,SNB-75 CNS,7.61 µM
same,GI50,UO-31 renal,2.56 µM
same,TGI,UO-31 renal,13.5 µM
same,GI50,MOLT-4 leukemia,2.71 µM
same,TGI,MOLT-4 leukemia,9.88 µM
same,GI50,RXF 393 renal,2.02 µM
same,TGI,RXF 393 renal,5.57 µM
same,GI50,SK-OV-3 ovarian,15.5 µM
same,TGI,SK-OV-3 ovarian,29.6 µM
same,GI50,HOP-92 NSCLC,3.15 µM
same,TGI,HOP-92 NSCLC,8.08 µM
same,GI50,OVCAR-5 ovarian,2.13 µM
same,TGI,OVCAR-5 ovarian,4.58 µM
same,GI50,NCI-H522 lung,2.31 µM
same,TGI,NCI-H522 lung,6.99 µM
same,GI50,MDA-MB-231 breast,2.73 µM
same,TGI,MDA-MB-231 breast,9.08 µM
same,GI50,KM12 colon,3.71 µM
same,TGI,KM12 colon,31.3 µM
same,GI50,SW-620 colon,3.28 µM
same,TGI,SW-620 colon,10.5 µM
same,GI50,NCI/ADR-RES ovarian,3.02 µM
same,TGI,NCI/ADR-RES ovarian,12.3 µM
same,GI50,SNB-19 CNS,2.6 µM
same,TGI,SNB-19 CNS,7.33 µM
same,GI50,HCT-15 colon,1.75 µM
same,TGI,HCT-15 colon,3.88 µM
same,GI50,MDA-MB-435,1.16 µM
same,TGI,MDA-MB-435,2.47 µM
same,GI50,HCC-2998 colon,2.5 µM
same,TGI,HCC-2998 colon,5.51 µM
same,GI50,CAKI-1 renal,3.29 µM
same,TGI,CAKI-1 renal,13.9 µM
same,GI50,SF-295 CNS,1.98 µM
same,TGI,SF-295 CNS,3.59 µM
same,GI50,CCRF-CEM leukemia,3.29 µM
same,TGI,CCRF-CEM leukemia,> 100 µM
same,GI50,TK-10 renal,12.3 µM
same,TGI,TK-10 renal,26.4 µM
same,GI50,DU-145 prostate,1.55 µM
same,TGI,DU-145 prostate,3.01 µM
same,GI50,NCI-H460 lung,1.54 µM
same,TGI,NCI-H460 lung,3.48 µM
same,GI50,PC-3 prostate,2.75 µM
same,TGI,PC-3 prostate,21.6 µM
same,GI50,HOP-62 NSCLC,2.04 µM
same,TGI,HOP-62 NSCLC,3.74 µM
same,GI50,MCF7 breast,1.39 µM
same,TGI,MCF7 breast,3.34 µM
same,GI50,NCI-H226 lung,2.18 µM
same,TGI,NCI-H226 lung,5.46 µM
same,GI50,U251 CNS,3.07 µM
same,TGI,U251 CNS,10.1 µM
same,GI50,SN12C renal,1.74 µM
same,TGI,SN12C renal,3.49 µM
same,GI50,A549 NSCLC,1.78 µM
same,TGI,A549 NSCLC,3.63 µM
same,GI50,HT29 colon,3.31 µM
same,TGI,HT29 colon,9.25 µM
same,GI50,HL-60(TB) leukemia,1.82 µM
same,TGI,HL-60(TB) leukemia,6.09 µM
same,GI50,IGROV1 ovarian,2.51 µM
same,TGI,IGROV1 ovarian,6.14 µM
same,GI50,786-0 renal,7.09 µM
same,TGI,786-0 renal,24.2 µM
same,GI50,SK-MEL-5 melanoma,1.59 µM
same,TGI,SK-MEL-5 melanoma,3 µM
same,GI50,SF-539 CNS,1.93 µM
same,TGI,SF-539 CNS,3.69 µM
same,GI50,SR leukemia,3.05 µM
same,TGI,SR leukemia,69.5 µM
same,GI50,COLO 205 colon,1.89 µM
same,TGI,COLO 205 colon,3.61 µM
same,GI50,SF-268 CNS,3.48 µM
same,TGI,SF-268 CNS,19.2 µM
same,GI50,ACHN renal,4.08 µM
same,TGI,ACHN renal,16.1 µM
same,GI50,MALME-3M melanoma,0.755 µM
same,TGI,MALME-3M melanoma,2 µM
same,GI50,A498 renal,3.48 µM
same,TGI,A498 renal,9.69 µM
same,GI50,K-562 leukemia,2.84 µM
same,TGI,K-562 leukemia,> 100 µM
